Patent publication US9918989B2, “Combination therapies for malaria” (The Regents of the University of California, priority 2013, dated 2018)
Entries after “also recorded” stand apart in the source; their conditions may differ.

Columns and labels:
Plasmodium falciparum [1] = experiment: P. falciparum growth in vitro, flow cytometry; type: cell-based; conditions: 1 μM or 10 μM (up to 10 μM), 48 h, relative to vehicle control
anti-parasite genes = experiment: Midgut expression of anti-parasite/immune genes, quantitative PCR; type: in vivo, Anopheles stephensi; conditions: BIRB 796 with killed lysate of P. falciparum; 6 h post-feeding
[2] = test system: Anopheles stephensi p38 MAPK; experiment: MK2 phosphorylation in LPS-stimulated ASE cells, western blot; type: cell-based; conditions: ASE cells pre-incubated with 10 μM inhibitor, 2 h later 1 μg/ml LPS
Plasmodium falciparum [3] = experiment: P. falciparum development (oocysts) in A. stephensi after inhibitor-supplemented bloodmeal; type: in vivo, Anopheles stephensi; conditions: 10 μM in bloodmeal
Method: Midguts were dissected and oocysts were counted at 10 days following infection. Dots in FIG. 3A and FIG. 3C represent oocyst numbers in one midgut, while percentage positive midguts or percentage of midguts with at least one oocyst are represented as means in FIG. 3B and FIG. 3D. Mean oocysts per midgut (lines, numbers on graph) were analyzed by ANOVA (alpha=0.05) for overall significance and by Student-Neuman-Keuls for pairwise comparisons using Graphpad Prism version 4.0 (San Diego, Calif.). Prevalences of mosquito infection (indicated on graph) were analyzed by chi-square (alpha=0.05).

A. freeborni = experiment: Mosquito lifespan with inhibitor in water or bloodmeal; type: in vivo, Anopheles freeborni; conditions: 1 μM or 10 μM daily in water or once weekly via bloodmeal
A. stephensi = experiment: as above; type: in vivo, Anopheles stephensi; conditions: 1 μM or 10 μM daily in water or once weekly via bloodmeal

Row | Compound | P. falciparum growth in vitro (parasitemia) (Plasmodium falciparum [1]) | midgut immune gene expression levels (anti-parasite genes) | p-MK2 levels (phosphorylation of MK2) [2] | infection prevalence in A. stephensi (Plasmodium falciparum [3]; midguts with at least one oocyst at 10 days) | P. falciparum oocysts/midgut (Plasmodium falciparum [3]; oocysts counted at 10 days) | impact on lifespan (A. freeborni) | impact on lifespan (A. stephensi)
1 | Cc1ccc(-n2nc(C(C)(C)C)cc2NC(=O)Nc2ccc(OCCN3CCOCC3)c3ccccc23)cc1 [BIRB 796, 1-[5-tert-butyl-2-(4-methylphenyl)pyrazol-3-yl]-3-[4-(2-morpholin-4-ylethoxy)naphthalen-1-yl]urea] | Neither inhibitor significantly altered parasite growth | significantly different from controls | – | – | – | – | –
2 | C[S+]([O-])c1ccc(-c2nc(-c3ccc(F)cc3)c(-c3ccncc3)[nH]2)cc1 (centres unmarked) [SB203580, 4-[4-(4-fluorophenyl)-2-(4-methylsulfinylphenyl)-1H-imidazol-5-yl]pyridine] | Neither inhibitor significantly altered parasite growth; also recorded: no such effects | – | undetectable | significantly reduced | significantly reduced | – | –
3 | Oc1c2ccccc2c2c3c(cccc13)N=N2 [SP600125, 1;9-Pyrazoloanthrone] | – | – | – | – | – | no negative impact | no negative impact
